# Patent US20200339625A1, “NOVEL RADIOMETAL-BINDING COMPOUNDS FOR DIAGNOSIS OR TREATMENT OF PROSTATE SPECIFIC MEMBRANE ANTIGEN-EXPRESSING CANCER” (PROVINCIAL HEALTH SERVICES AUTHORITY, priority 2017, published 2020)
# How the values were obtained:
# [1] = tested on: mice bearing PSMA-expressing LNCAP cancer xenografts; assay: Biodistribution of 68Ga-labeled compounds; assay type: in vivo
# Protocol: (§1) Imaging and biodistribution experiments were performed using NODSCID 1L2RyKO male mice. Mice were anesthetized by inhalation with 2% isoflurane in oxygen, and implanted subcutaneously with 1×10^7 LNCaP cells behind left shoulder. Mice were imaged or used in biodistribution studies when the tumor grew up to reach 5-8 mm in diameter during 5-6 weeks.
# For biodistribution studies, the mice were injected with the radiotracer as described above. At predetermined time points (1 or 3 h), the mice was anesthetized with 2% isoflurane inhalation, and euthanized by CO2 inhalation. Blood was withdrawn immediately from the heart, and the organs/tissues of interest were collected. The collected organs/tissues were weighed and counted using an automatic gamma counter. The uptake in each organ/tissue was normalized to the injected dose using a standard curve, and expressed as the percentage of the injected dose per gram of tissue (% ID/g).
# [2] = tested on: mice bearing LNCaP tumor xenografts; assay: PET/CT imaging of 68Ga-labeled compounds; assay type: in vivo; conditions: for tumor uptake (qualitative comparison): compounds of FIG. 13
# Protocol: 2.17 PET/CT Imaging and Biodistribution
# as §1
# PET imaging experiments were conducted using Siemens Inveon micro PET/CT scanner. Each tumor bearing mouse was injected 6-8 MBq of 68Ga-labeled tracer through the tail vein under anesthesia (2% isoflurane in oxygen). The mice were allowed to recover and roam freely in their cage. After 50 min, the mice were sedated again with 2% isoflurane in oxygen inhalation and positioned in the scanner. A 10-min CT scan was conducted first for localization and attenuation correction after segmentation for reconstructing the PET images. Then, a 10-min static PET imaging was performed to determined uptake in tumor and other organs. The mice were kept warm by a heating pad during acquisition. For imaging studies acquired at 3 h post-injection (p.i.), the mice were placed in the micro PET/CT scanner at 170 min p.i. Then, the CT acquisitions were conducted as described above, a 15-min static PET imaging was performed to determined uptake in tumor and other organs.
smiles,measurement,setting,value
O=C([O-])CN1CCN(CC(=O)[O-])CCN(CC(=O)NCC2CCC(C(=O)NC(Cc3ccc4cc5ccccc5cc4c3)C(=O)NCCCCC(NC(=O)NC(CCC(=O)O)C(=O)O)C(=O)O)CC2)CCN(CC(=O)[O-])CC1.[68Ga+3] (centres unmarked) [^68Ga-HTK03027],Adrenal glands uptake,[1]; 1 h post-injection,3.55 ± 2.33 % ID/g
same,Blood uptake,[1]; 1 h post-injection,1.56 ± 0.57 % ID/g
same,Bone uptake,[1]; 1 h post-injection,0.70 ± 0.33 % ID/g
same,Brain uptake,[1]; 1 h post-injection,0.06 ± 0.03 % ID/g
same,Fat uptake,[1]; 1 h post-injection,1.03 ± 0.67 % ID/g
same,Heart uptake,[1]; 1 h post-injection,0.56 ± 0.24 % ID/g
same,Intestine uptake,[1]; 1 h post-injection,0.44 ± 0.12 % ID/g
same,Kidneys uptake,[1]; 1 h post-injection,85.6 ± 73.5 % ID/g
same,Lacrimal uptake,[1]; 1 h post-injection,1.00 ± 0.56 % ID/g
same,Liver uptake,[1]; 1 h post-injection,0.46 ± 0.10 % ID/g
same,Lungs uptake,[1]; 1 h post-injection,1.66 ± 0.67 % ID/g
same,Muscle uptake,[1]; 1 h post-injection,0.48 ± 0.37 % ID/g
same,Pancreas uptake,[1]; 1 h post-injection,0.57 ± 0.20 % ID/g
same,Salivary uptake,[1]; 1 h post-injection,1.86 ± 0.91 % ID/g
same,Seminal uptake,[1]; 1 h post-injection,10.6 ± 10.9 % ID/g
same,Spleen uptake,[1]; 1 h post-injection,3.36 ± 2.54 % ID/g
same,Stomach uptake,[1]; 1 h post-injection,0.17 ± 0.10 % ID/g
same,Tail uptake,[1]; 1 h post-injection,0.98 ± 0.38 % ID/g
same,Testes uptake,[1]; 1 h post-injection,0.56 ± 0.18 % ID/g
same,Thyroid uptake,[1]; 1 h post-injection,0.76 ± 0.33 % ID/g
same,Tumor uptake,[1]; 1 h post-injection,13.3 ± 5.44 % ID/g
same,Tumor:Blood ratio,[1]; 1 h post-injection,8.57 ± 2.83
same,Tumor:Muscle ratio,[1]; 1 h post-injection,35.0 ± 18.7
same,Tumor:kidney ratio,[1]; 1 h post-injection,0.27 ± 0.20
same,Urine uptake,[1]; 1 h post-injection,844 ± 645 % ID/g
same,excretion pathway,[2]; PET/CT images,excreted mainly via the renal pathway
same,tumor uptake (qualitative comparison),[2]; PET/CT images,comparable
COc1ccc(CCCC(=O)NCC(=O)N[C@@H](CCCCNC(=O)CN2CCN(CC(=O)[O-])CCN(CC(=O)[O-])CCN(CC(=O)[O-])CC2)C(=O)NC[C@H]2CC[C@H](C(=O)N[C@@H](Cc3ccc4ccccc4c3)C(=O)NCCCC[C@H](NC(=O)N[C@@H](CCC(=O)O)C(=O)O)C(=O)O)CC2)cc1.[68Ga+3] [^68Ga-HTK03086],Adrenal glands uptake,[1]; 1 h post-injection,3.28 ± 0.54 % ID/g
same,Blood uptake,[1]; 1 h post-injection,12.1 ± 0.60 % ID/g
same,Bone uptake,[1]; 1 h post-injection,0.72 ± 0.19 % ID/g
same,Brain uptake,[1]; 1 h post-injection,0.15 ± 0.01 % ID/g
same,Fat uptake,[1]; 1 h post-injection,1.37 ± 0.17 % ID/g
same,Heart uptake,[1]; 1 h post-injection,2.76 ± 0.25 % ID/g
same,Intestine uptake,[1]; 1 h post-injection,0.91 ± 0.07 % ID/g
same,Kidneys uptake,[1]; 1 h post-injection,54.7 ± 4.84 % ID/g
same,Lacrimal uptake,[1]; 1 h post-injection,0.24 ± 0.05 % ID/g
same,Liver uptake,[1]; 1 h post-injection,1.77 ± 0.27 % ID/g
same,Lungs uptake,[1]; 1 h post-injection,5.43 ± 0.65 % ID/g
same,Muscle uptake,[1]; 1 h post-injection,0.94 ± 0.02 % ID/g
same,Pancreas uptake,[1]; 1 h post-injection,1.16 ± 0.11 % ID/g
same,Salivary uptake,[1]; 1 h post-injection,2.51 ± 0.18 % ID/g
same,Seminal uptake,[1]; 1 h post-injection,0.71 ± 0.10 % ID/g
same,Spleen uptake,[1]; 1 h post-injection,2.18 ± 0.51 % ID/g
same,Stomach uptake,[1]; 1 h post-injection,0.34 ± 0.04 % ID/g
same,Tail uptake,[1]; 1 h post-injection,3.39 ± 0.59 % ID/g
same,Testes uptake,[1]; 1 h post-injection,1.54 ± 0.18 % ID/g
same,Thyroid uptake,[1]; 1 h post-injection,2.24 ± 0.15 % ID/g
same,Tumor uptake,[1]; 1 h post-injection,17.8 ± 2.89 % ID/g
same,Tumor:Blood ratio,[1]; 1 h post-injection,1.47 ± 0.28
same,Tumor:Muscle ratio,[1]; 1 h post-injection,18.8 ± 2.968
same,Tumor:kidney ratio,[1]; 1 h post-injection,0.32 ± 0.04
same,Urine uptake,[1]; 1 h post-injection,82.9 ± 62.5 % ID/g
same,Adrenal glands uptake,[1]; 3 h post-injection,1.80 ± 0.39 % ID/g
same,Blood uptake,[1]; 3 h post-injection,6.60 ± 0.84 % ID/g
same,Bone uptake,[1]; 3 h post-injection,0.33 ± 0.16 % ID/g
same,Brain uptake,[1]; 3 h post-injection,0.09 ± 0.02 % ID/g
same,Fat uptake,[1]; 3 h post-injection,0.95 ± 0.12 % ID/g
same,Heart uptake,[1]; 3 h post-injection,1.53 ± 0.21 % ID/g
same,Intestine uptake,[1]; 3 h post-injection,0.71 ± 0.07 % ID/g
same,Kidneys uptake,[1]; 3 h post-injection,48.5 ± 10.7 % ID/g
same,Lacrimal uptake,[1]; 3 h post-injection,0.07 ± 0.04 % ID/g
same,Liver uptake,[1]; 3 h post-injection,1.40 ± 0.35 % ID/g
same,Lungs uptake,[1]; 3 h post-injection,3.49 ± 0.64 % ID/g
same,Muscle uptake,[1]; 3 h post-injection,0.57 ± 0.09 % ID/g
same,Pancreas uptake,[1]; 3 h post-injection,0.70 ± 0.11 % ID/g
same,Salivary uptake,[1]; 3 h post-injection,1.39 ± 0.13 % ID/g
same,Seminal uptake,[1]; 3 h post-injection,0.47 ± 0.09 % ID/g
same,Spleen uptake,[1]; 3 h post-injection,1.58 ± 0.37 % ID/g
same,Stomach uptake,[1]; 3 h post-injection,0.27 ± 0.08 % ID/g
same,Tail uptake,[1]; 3 h post-injection,1.50 ± 0.17 % ID/g
same,Testes uptake,[1]; 3 h post-injection,1.30 ± 0.30 % ID/g
same,Thyroid uptake,[1]; 3 h post-injection,1.39 ± 0.16 % ID/g
same,Tumor uptake,[1]; 3 h post-injection,28.2 ± 5.44 % ID/g
same,Tumor:Blood ratio,[1]; 3 h post-injection,4.33 ± 1.06
same,Tumor:Muscle ratio,[1]; 3 h post-injection,50.5 ± 13.5
same,Tumor:kidney ratio,[1]; 3 h post-injection,0.59 ± 0.10
same,Urine uptake,[1]; 3 h post-injection,1.30 ± 47.9 % ID/g
same,change of tumor uptake from 1 h to 3 h post-injection,[2]; PET/CT images,increases over time
same,excretion pathway,[2]; PET/CT images,excreted mainly by the renal pathway
same,blood retention (qualitative),"[2]; PET/CT images at 1 h and 3 h post-injection, comparison within the figure",significantly higher blood retention
O=C([O-])CN1CCN(CC(=O)[O-])CCN(CC(=O)NCC2CCC(C(=O)NC(Cc3ccc4ccc5cccc6ccc3c4c56)C(=O)NCCCCC(NC(=O)NC(CCC(=O)O)C(=O)O)C(=O)O)CC2)CCN(CC(=O)[O-])CC1.[68Ga+3] (centres unmarked) [^68Ga-HTK03029],Adrenal glands uptake,[1]; 1 h post-injection,4.91 ± 1.57 % ID/g
same,Blood uptake,[1]; 1 h post-injection,3.93 ± 0.91 % ID/g
same,Bone uptake,[1]; 1 h post-injection,0.92 ± 0.14 % ID/g
same,Brain uptake,[1]; 1 h post-injection,0.09 ± 0.02 % ID/g
same,Fat uptake,[1]; 1 h post-injection,1.57 ± 0.42 % ID/g
same,Heart uptake,[1]; 1 h post-injection,1.25 ± 0.27 % ID/g
same,Intestine uptake,[1]; 1 h post-injection,0.77 ± 0.11 % ID/g
same,Kidneys uptake,[1]; 1 h post-injection,198 ± 49.3 % ID/g
same,Lacrimal uptake,[1]; 1 h post-injection,1.06 ± 0.49 % ID/g
same,Liver uptake,[1]; 1 h post-injection,1.32 ± 0.63 % ID/g
same,Lungs uptake,[1]; 1 h post-injection,3.59 ± 0.69 % ID/g
same,Muscle uptake,[1]; 1 h post-injection,0.63 ± 0.10 % ID/g
same,Pancreas uptake,[1]; 1 h post-injection,0.94 ± 0.18 % ID/g
same,Salivary uptake,[1]; 1 h post-injection,3.27 ± 1.02 % ID/g
same,Seminal uptake,[1]; 1 h post-injection,6.74 ± 10.7 % ID/g
same,Spleen uptake,[1]; 1 h post-injection,7.08 ± 5.08 % ID/g
same,Stomach uptake,[1]; 1 h post-injection,0.31 ± 0.08 % ID/g
same,Tail uptake,[1]; 1 h post-injection,2.18 ± 0.65 % ID/g
same,Testes uptake,[1]; 1 h post-injection,1.02 ± 0.13 % ID/g
same,Thyroid uptake,[1]; 1 h post-injection,1.57 ± 0.32 % ID/g
same,Tumor uptake,[1]; 1 h post-injection,13.9 ± 6.58 % ID/g
same,Tumor:Blood ratio,[1]; 1 h post-injection,3.39 ± 1.01
same,Tumor:Muscle ratio,[1]; 1 h post-injection,21.3 ± 7.50
same,Tumor:kidney ratio,[1]; 1 h post-injection,0.07 ± 0.02
same,Urine uptake,[1]; 1 h post-injection,175 ± 178 % ID/g
same,excretion pathway,[2]; PET/CT images,excreted mainly via the renal pathway
same,tumor uptake (qualitative comparison),[2]; PET/CT images,comparable
